Data taken from ChEMBL document CHEMBL2040800 (J Med Chem, 2012).
pIC50: −log10 of the molar value. Active and inactive are the calls of the source. No cut-off for these calls is given here.

Key:
[1] = Volume of distribution at steady state in Sprague-Dawley rat at […], iv; type: ADME, organism-based; parameters: dose 4.7 mg/kg, route intravenous; conditions: in vivo, read-out: Vdss
Plasmodium berghei [2] = test: Antimalarial activity against Plasmodium berghei ANKA expressing GFP infected in Sprague-Dawley rat assessed as reduction in parasitemia at 100 mg/kg, po administered as single dose measured on day 3 post-infection by flow cytometry; type: functional; parameters: scale not given: the % may be the effect or the level left
Plasmodium berghei [3] = test: Antimalarial activity against Plasmodium berghei ANKA expressing GFP infected in Sprague-Dawley rat assessed as reduction in parasitemia at 3 mg/kg, po administered as single dose measured on day 3 post-infection by flow cytometry; type: functional; parameters: scale not given: the % may be the effect or the level left
[4] = Partition coefficient, log D of the compound at pH 7.4 by phase gradient HPLC analysis; type: physicochemical; conditions: octanol/water
[5] = Oral bioavailability in Sprague-Dawley rat at 5 mg/kg; type: ADME, organism-based; conditions: in vivo
[6] = Apparent terminal half life in Sprague-Dawley rat at […], iv; type: ADME, organism-based; parameters: dose 4.7 mg/kg, route intravenous; conditions: in vivo, read-out: betat1/2(app) (converted)
Plasmodium berghei [7] = test: Antimalarial activity against Plasmodium berghei ANKA expressing GFP infected in Sprague-Dawley rat assessed as mean survival days of host at 50 mg/kg, po administered as 4 doses; type: functional
Plasmodium berghei [8] = test: Antimalarial activity against Plasmodium berghei ANKA expressing GFP infected in po dosed Sprague-Dawley rat assessed as reduction in parasitemia administered as single dose measured on day 3 post-infection by flow cytometry; type: functional; conditions: 72 h
Plasmodium berghei [9] = test: Antimalarial activity against Plasmodium berghei ANKA expressing GFP infected in Sprague-Dawley rat assessed as host survival at 3 mg/kg, po administered as single dose measured 6 days post-infection; type: functional, organism-based; parameters: dose 3 mg/kg
Plasmodium berghei [10] = test: Antimalarial activity against Plasmodium berghei ANKA expressing GFP infected in Sprague-Dawley rat assessed as total cure from parasite at 50 mg/kg, po administered as 4 doses measured on day 30 post-infection by flow cytometry; type: functional, organism-based; parameters: dose 50 mg/kg
[11] = Half life in human liver microsomes at 1 uM; type: ADME, Microsome
[12] = AUC (0 to infinity) in Sprague-Dawley rat at 5 mg/kg, po; type: ADME, organism-based; parameters: time infinity, dose 5 mg/kg, route oral; conditions: plasma
Plasmodium berghei [13] = test: Antimalarial activity against Plasmodium berghei ANKA expressing GFP infected in Sprague-Dawley rat assessed as reduction in parasitemia at 50 mg/kg, po administered as 4 doses measured on day 4 post-infection by flow cytometry; type: functional; parameters: scale not given: the % may be the effect or the level left
[14] = AUC (0 to infinity) in Sprague-Dawley rat at […], iv; type: ADME, organism-based; parameters: time infinity, dose 4.7 mg/kg, route intravenous; conditions: plasma
Plasmodium berghei [15] = test: Antimalarial activity against Plasmodium berghei ANKA expressing GFP infected in Sprague-Dawley rat assessed as mean survival days of host at 100 mg/kg, po administered as single dose; type: functional
[16] = Tmax in Sprague-Dawley rat at 5 mg/kg, po; type: ADME, organism-based; parameters: dose 5 mg/kg, route oral; conditions: in vivo
Plasmodium berghei [17] = test: Antimalarial activity against Plasmodium berghei ANKA expressing GFP infected in Sprague-Dawley rat assessed as mean survival days of host at 10 mg/kg, po administered as single dose; type: functional
Plasmodium berghei [18] = test: Antimalarial activity against Plasmodium berghei ANKA expressing GFP infected in Sprague-Dawley rat assessed as mean survival days of host at 30 mg/kg, po administered as single dose; type: functional
[19] = Cmax in Sprague-Dawley rat at 5 mg/kg, po; type: ADME, organism-based; parameters: dose 5 mg/kg, route oral; conditions: in vivo
[20] = Apparent terminal half life in Sprague-Dawley rat at 22.3 mg/kg, po; type: ADME, organism-based; parameters: dose 22.3 mg/kg, route oral; conditions: in vivo, read-out: betat1/2(app) (converted)
Plasmodium berghei [21] = test: Antimalarial activity against Plasmodium berghei ANKA expressing GFP infected in Sprague-Dawley rat assessed as mean survival days of host at 3 mg/kg, po administered as single dose; type: functional
[22] = Total plasma clearance in Sprague-Dawley rat at […], iv; type: ADME, organism-based; parameters: dose 4.7 mg/kg, route intravenous
Plasmodium berghei [23] = test: Antimalarial activity against Plasmodium berghei ANKA expressing GFP infected in Sprague-Dawley rat assessed as reduction in parasitemia at 30 mg/kg, po administered as single dose measured on day 3 post-infection by flow cytometry; type: functional; parameters: scale not given: the % may be the effect or the level left
[24] = Intrinsic clearance in human liver microsomes at 1 uM up to 60 mins; type: ADME, Microsome; conditions: read-out: CLH
[25] = Oral bioavailability in Sprague-Dawley rat at 22.3 mg/kg; type: ADME, organism-based; conditions: in vivo
[26] = AUC (0 to infinity) in Sprague-Dawley rat at 22.3 mg/kg, po; type: ADME, organism-based; parameters: time infinity, dose 22.3 mg/kg, route oral; conditions: plasma
Plasmodium berghei [27] = test: Antimalarial activity against Plasmodium berghei ANKA expressing GFP infected in Sprague-Dawley rat assessed as reduction in parasitemia at 10 mg/kg, po administered as single dose measured on day 3 post-infection by flow cytometry; type: functional; parameters: scale not given: the % may be the effect or the level left
[28] = Apparent terminal half life in Sprague-Dawley rat at 5 mg/kg, po; type: ADME, organism-based; parameters: dose 5 mg/kg, route oral; conditions: in vivo, read-out: betat1/2(app) (converted)
[29] = Tmax in Sprague-Dawley rat at 22.3 mg/kg, po; type: ADME, organism-based; parameters: dose 22.3 mg/kg, route oral; conditions: in vivo
[30] = Total blood clearance in Sprague-Dawley rat at […], iv; type: ADME, organism-based; parameters: dose 4.7 mg/kg, route intravenous; conditions: whole blood
[31] = Cmax in Sprague-Dawley rat at 22.3 mg/kg, po; type: ADME, organism-based; parameters: dose 22.3 mg/kg, route oral; conditions: in vivo
Rattus norvegicus [32] = test: Toxicity in Sprague-Dawley rat assessed as impaired coordination at 30 mg/kg, po administered as single dose; type: organism-based; parameters: dose 30 mg/kg, route oral; conditions: in vivo
[33] = Cmax in Sprague-Dawley rat at 21.7 mg/kg, po; type: ADME, organism-based; parameters: dose 21.7 mg/kg, route oral; conditions: in vivo
[34] = Tmax in Sprague-Dawley rat at 21.7 mg/kg, po; type: ADME, organism-based; parameters: dose 21.7 mg/kg, route oral; conditions: in vivo
Rattus norvegicus [35] = test: Toxicity in Sprague-Dawley rat assessed as impaired coordination at 50 mg/kg, po administered as 4 doses measured post-third dose; type: organism-based; parameters: dose 50 mg/kg, route oral; conditions: in vivo
Plasmodium falciparum [36] = test: Antimalarial activity against chloroquine-resistant Plasmodium falciparum K1 after 24 hrs by hypoxanthine incorporation assay; type: functional, organism-based; conditions: K1, 24 h
[37] = Kinetic solubility of the compound in phosphate buffer after 30 mins by nephelometry at pH 6.5; type: physicochemical; conditions: read-out: Kinetic_solubility
[38] = Apparent terminal half life in Sprague-Dawley rat at 21.7 mg/kg, po; type: ADME, organism-based; parameters: dose 21.7 mg/kg, route oral; conditions: in vivo, read-out: betat1/2(app) (converted)
[39] = AUC (0 to infinity) in Sprague-Dawley rat at 21.7 mg/kg, po; type: ADME, organism-based; parameters: time infinity, dose 21.7 mg/kg, route oral; conditions: plasma
[40] = Oral bioavailability in Sprague-Dawley rat at 21.7 mg/kg; type: ADME, organism-based; conditions: in vivo
[41] = Plasma protein binding in human by reverse phase gradient HPLC analysis; type: ADME, cell-free; conditions: read-out: PPB (converted)
Plasmodium falciparum [42] = test: Antimalarial activity against chloroquine-sensitive Plasmodium falciparum NF54 after 24 hrs by hypoxanthine incorporation assay; type: functional, organism-based; conditions: NF54, 24 h

SMILES: COc1ccc(-c2cc(-c3ccc(S(C)(=O)=O)cc3)cnc2N)cn1
- Vd [1]: 4.3 L/kg
- Activity (Plasmodium berghei [2]): >99.3%
- Activity (Plasmodium berghei [3]): <40%
- chromatographic logD [4]: 2.2
- bioavailability [5]: 83%
- half-life [6]: 8 h
- MSD (Plasmodium berghei [7]): >30 days
- ED50 (Plasmodium berghei [8]): 4.7 mg/kg
- ED90 (Plasmodium berghei [8]): 17 mg/kg
- Activity (Plasmodium berghei [9]): inactive
- Activity (Plasmodium berghei [10]): Active
- half-life at 1 µM [11]: > 1.65 h
- AUC(0-inf) [12]: 11.8 µM·h
- Activity (Plasmodium berghei [13]): 99.8%
- AUC(0-inf) [14]: 13.2 µM·h
- MSD (Plasmodium berghei [15]): 21 days
- Tmax [16]: 0.25 h
- MSD (Plasmodium berghei [17]): 7 days
- MSD (Plasmodium berghei [18]): 8 days
- Cmax [19]: 5.4 µM
- half-life [20]: 6.5 h
- MSD (Plasmodium berghei [21]): 3 days
- clearance [22]: 16.7 mL/min/kg
- Activity (Plasmodium berghei [23]): 99%
- microsomal CLint at 1 µM [24]: < 28 µL/min/mg
- bioavailability [25]: > 100%
- AUC(0-inf) [26]: 115 µM·h
- Activity (Plasmodium berghei [27]): 82%
- half-life [28]: 6.7 h
- Tmax [29]: 1.75 h
- clearance [30]: 18.3 mL/min/kg
- Cmax [31]: 21 µM

SMILES: CS(=O)(=O)c1ccc(-c2cnc(N)c(-c3ccc(C(F)(F)F)cc3)c2)cc1
- Activity (Rattus norvegicus [32]): Non-toxic
- Vd [1]: 8 L/kg
- chromatographic logD [4]: 3.4
- Cmax [33]: 1 µM
- half-life [6]: 11.3 h
- Tmax [34]: 3.25 h
- Activity (Rattus norvegicus [35]): Toxic
- pIC50 (Plasmodium falciparum [36]): 7.70
- solubility kinetic at 0.5 h [37]: < 1.6 µg/mL
- half-life at 1 µM [11]: > 4.17 h
- AUC(0-inf) [14]: 6.98 µM·h
- half-life [38]: 6 h
- MSD (Plasmodium berghei [17]): 9 days
- MSD (Plasmodium berghei [18]): 15 days
- AUC(0-inf) [39]: 8.27 µM·h
- clearance [22]: 29 mL/min/kg
- Activity (Plasmodium berghei [23]): 97.3%
- microsomal CLint at 1 µM [24]: < 7 µL/min/mg
- Activity (Plasmodium berghei [27]): 98%
- bioavailability [40]: 26%
- fraction unbound [41]: 0.038
- pIC50 (Plasmodium falciparum [42]): 7.72
